The NIST ThermoML archive (doi:10.1021/acs.jced.8b00537)

Assays:
[1] = xn = mol fraction of the nth substance listed; settings: 100 kPa, Liquid, x2 = 0; for viscosity: Capillary tube (Ostwald / Ubbelohde) method; for speed of sound: Frequency=3 MHz, Single path-length method; for mass density: Vibrating tube method
[2] = 100 kPa, Liquid; for speed of sound: Frequency=3 MHz, Single path-length method; for mass density: Vibrating tube method; for viscosity: Capillary tube (Ostwald / Ubbelohde) method

CCCO [propan-1-ol] + O=S(=O)([N-]S(=O)(=O)C(F)(F)F)C(F)(F)F.On1cc[n+](O)c1
[1]
Settings	mass density [kg/m3]	speed of sound [m/s]	viscosity [mPa·s]
293.15 K	804	1223.8	2.14
298.15 K	800	1206.5	1.897
303.15 K	796	1189.4	1.688
308.15 K	792	1172.4	1.506
313.15 K	787	1155.5	1.348
318.15 K	783	1138.7	1.211
323.15 K	779	1121.9	1.09
328.15 K	775	1105.2	0.985
333.15 K	770	1088.3	0.892
338.15 K	766	1071.5	0.81
343.15 K	762	1054.5	0.737

CC[S+](CC)CC.O=S(=O)([N-]S(=O)(=O)C(F)(F)F)C(F)(F)F [triethylsulfonium bis((trifluoromethyl)sulfonyl)imide]
[2]
Settings	mass density [kg/m3]	speed of sound [m/s]	viscosity [mPa·s]
278.15 K	1479.52	1284.8	–
283.15 K	1474.62	1274.1	–
288.15 K	1469.71	1263.3	–
293.15 K	1464.83	1252.9	39.64
298.15 K	1459.98	1242.5	32.43
303.15 K	1455.14	1232.4	26.92
308.15 K	1450.33	1222.4	22.64
313.15 K	1445.52	1212.7	19.24
318.15 K	1440.74	1203.1	16.53
323.15 K	1435.99	1193.7	14.31
328.15 K	1431.27	1184.7	12.5
333.15 K	1426.57	1175.9	10.99
338.15 K	1421.87	1166.8	9.726
343.15 K	1417.19	1157.6	8.659
